{
  "source": "patent US20220402883A1",
  "about": "“COMPOUNDS AND METHODS FOR MODULATING RNA FUNCTION” (Arrakis Therapeutics, Inc., priority 2016, published 2022)",
  "key": {"RNA3WJ_2.0.0_5IB_3FAM": {"system": "RNA3WJ_2.0.0_5IB_3FAM", "test": "Thermal shift binding assay", "settings": "1 μM RNA, 8 μM compound, 10 mM CacoK pH 7.2, 30 mM NaCl", "from_the_text": "(§1) Purpose: Test binding of compounds for RNA three way junction (for example, a construct of 38 nt). Thermal shift assay based on established fluorescence quenching assay utilizing FAM as fluorescence tag and Iowa Black as quencher. Tags were attached at the 3′ and 5′ end, respectively. Stable formation of 3WJ upon compound binding would lead to quenching of the FAM fluorescence due to close proximity of the Iowa Black tag. Thermal unfolding leads to increase of fluorescence emission. Assay readout: FAM (465-510 nm) Thermal Shift.\n(§2) Assay sample buffer used: 10 mM CacoK pH 7.2, 30 mM NaCl. Buffer preparation in Dnase/Rnase Free distilled water (Gibco Life Technologies).\n(§3) Dilute the RNA 1:10 (final 10 μM) in Assay Buffer.\n(§4) Heat up the diluted RNA up to 90° C. for 5 min (sealed Eppendorf Tube).\n(§5) Cool down the RNA probe slowly to RT.\n(§6) Dilute the compounds to 800 μM in DMSO (Assay: 8 μM).\n(§7) Final concentrations in the sample: 1 μM RNA, 8 μM compound, 1% DMSO\n(§8) Pipet 20 μL Sample Solution into Roche, Light Cycler480 Multiwell Plate96, white, REF 04729692001.\n(§9) Measure the 96 plate with the LightCycler480 (Channel: 480/510 nm; Temperature: 41-91° C.).\n(§10) Analyse measurement-data with the MeltingCurveGenotyping Mode.\n(§11) Settings: Acquisition mode: continuous; Ramp rate: 0.1° C./sec; Acquisition: 6° C.\n(§12) Curves are fitted with raw and normalized data.\n(§13) Melting curves analysis show melting temperature (Tm) of ˜51° C. Range of RNA concentrations was tested and assay window was determined (conc. range of 0.5-1 μM yields best results). The choice of buffer also affected the Tm. RNA constructs were tested under different buffer conditions (especially in presence of salt) in the thermal shift assay. […] CacoK with 30 mM salt at 1 μM RNA conc. was used to assess compound effects on 3WJ stability. […] These conditions were used for screening test compounds."}, "RNA3WJ_2.1.0_5IB_3FAM": {"system": "RNA3WJ_2.1.0_5IB_3FAM", "test": "Thermal shift binding assay", "settings": "1 μM RNA, 8 μM compound, 10 mM CacoK pH 7.2, 30 mM NaCl", "from_the_text": "as §1, §2, §3, §4, §5, §6, §7, §8, §9, §10, §11, §12, §13"}, "RNA3WJ_1.1.0_5IB_3FAM": {"system": "RNA3WJ_1.1.0_5IB_3FAM", "test": "Thermal shift binding assay", "settings": "1 μM RNA, 8 μM compound, 10 mM CacoK pH 7.2, 30 mM NaCl", "from_the_text": "as §1, §2, §3, §4, §5, §6, §7, §8, §9, §10, §11, §12, §13"}, "RNA3WJ_1.1.1_5IB_3FAM": {"system": "RNA3WJ_1.1.1_5IB_3FAM", "test": "Thermal shift binding assay", "settings": "1 μM RNA, 8 μM compound, 10 mM CacoK pH 7.2, 30 mM NaCl", "from_the_text": "as §1, §2, §3, §4, §5, §6, §7, §8, §9, §10, §11, §12, §13"}, "[1]": {"system": "Split3WJ.2_up_5IB+Split3WJ.2_down_3FAM (trans 3WJ as 1:1 mix; Split3WJ_2)", "test": "Thermal shift binding assay", "settings": "1 μM RNA, 8 μM compound, 10 mM CacoK pH 7.2, 30 mM NaCl", "from_the_text": "as §1, §2, §3, §4, §5, §6, §7, §8, §9, §10, §11, §12, §13\n(§14) Compounds Ark0000013 and Ark0000014 were also tested in the thermal shift assay against three RNA 3WJ constructs, A) RNA3WJ_1.0.0_5IB_3FAM (cis 3WJ with one unpaired nucleotide); B) Split3WJ.1_up_5IB+Split3WJ.1_down_3FAM (trans 3WJ as 1:1 mix); and C) Split3WJ.2_up_5IB+Split3WJ.2_down_3FAM (trans 3WJ as 1:1 mix)."}, "[2]": {"system": "RNA3WJ_1.0.0_5IB_3FAM (cis 3WJ with one unpaired nucleotide)", "test": "Thermal shift binding assay", "settings": "1 μM RNA, 8 μM compound, 10 mM CacoK pH 7.2, 30 mM NaCl", "from_the_text": "as §1, §2, §3, §4, §5, §6, §7, §8, §9, §10, §11, §12, §13, §14"}, "[3]": {"system": "Split3WJ.1_up_5IB+Split3WJ.1_down_3FAM (trans 3WJ as 1:1 mix; Split3WJ_1)", "test": "Thermal shift binding assay", "settings": "1 μM RNA, 8 μM compound, 10 mM CacoK pH 7.2, 30 mM NaCl", "from_the_text": "as §1, §2, §3, §4, §5, §6, §7, §8, §9, §10, §11, §12, §13, §14"}, "[4]": {"system": "RNA3WJ_1.0.0_5IB_3FAM (cis 3WJ with one unpaired nucleotide)", "test": "Fluorescence quenching binding assay (FAM / Iowa Black)", "settings": "two concentration points", "procedure": "(§15) This assay will be used to test binding of compounds for RNA three way junction (such as a 38 nt construct). This is a fluorescence quenching assay utilizing FAM as fluorescence tag and Iowa Black as quencher. Tags are attached at the 3′ and 5′ end, respectively. Stable formation of MW upon compound binding would lead to quenching of the FAM fluorescence due to close proximity of the Iowa Black tag. Assay readout: FAM (485-520 nm) Fluorescence Intensity.\nas §2, §3, §4, §5, §6\n(§16) Final concentrations in the sample: 1-10 μM RNA, 8 μM compound, 1% DMSO\n(§17) Pipet 25 μL Sample Solution into Greiner cat #784076, black, 384\n(§18) Measure the 96 plate with the LightCycler480 (Channel: 485/520 nm).\n(§19) The fluorescence quenching experiment was repeated for compounds Ark0000013 and Ark0000014 to measure binding with:\nA) RNA3WJ_1.0.0_5IB_3FAM (cis 3WJ with one unpaired nucleotide)\n(§20) Both cmpds were tested at two concentration points in the fluorescence quenching assays to assess effect upon RNA constructs utilized in the study. […]"}, "[5]": {"system": "Split3WJ.2 up_5IB+Split3WJ.2_down_3FAM (trans 3WJ as 1:1 mix)", "test": "Fluorescence quenching binding assay (FAM / Iowa Black)", "settings": "two concentration points", "procedure": "as §15, §2, §3, §4, §5, §6, §16, §17, §18, §19\nC) Split3WJ.2 up_5IB+Split3WJ.2_down_3FAM (trans 3WJ as 1:1 mix)\nas §20"}, "[6]": {"system": "Split3WJ.1_up_5IB+Split3WJ.1_down_3FAM (trans 3WJ as 1:1 mix)", "test": "Fluorescence quenching binding assay (FAM / Iowa Black)", "settings": "two concentration points", "procedure": "as §15, §2, §3, §4, §5, §6, §16, §17, §18, §19\nB) Split3WJ.1_up_5IB+Split3WJ.1_down_3FAM (trans 3WJ as 1:1 mix)\nas §20"}, "RNA3WJ_3.0.0_5IB_3FAM": {"system": "RNA3WJ_3.0.0_5IB_3FAM", "test": "Thermal shift binding assay", "settings": "1 μM RNA, 8 μM compound, 10 mM CacoK pH 7.2, 30 mM NaCl", "from_the_text": "as §1, §2, §3, §4, §5\n(§21) Dilute the compounds to 800 μM in DMSO (Assay: 8 μM). […]\nas §8, §9, §10, §11, §12, §13"}, "[7]": {"system": "RNA3WJ_0.0.0_5IB_3FAM (3WJ_0.0.0_5IB_3FAM RNA construct)", "test": "Thermal shift binding assay", "from_the_text": "as §1, §2, §3, §4, §5, §21, §8, §9, §10, §11, §12, §13"}, "[8]": {"settings": "1 μM RNA, 8 μM compound, 10 mM CacoK pH 7.2, 30 mM NaCl"}},
  "data": [
    {"molecule": "NCCCCCCCNC(=O)c1ccc2c(c1)C1c3cc(C(=O)NCCCCCCCN)ccc3C2c2ccc(C(=O)NCCCCCCCN)cc21", "note": "[Ark000014, N^2,N^7,N^15-tris(7-aminoheptyl)-9,10-dihydro-9,10-[1,2]benzenoanthracene-2,7,15-tricarboxamide]", "values": [
      {"measurement": "Melting temp + cmpd", "setting": "RNA3WJ_2.0.0_5IB_3FAM", "value": 64.4, "unit": "°C"},
      {"measurement": "Temp. Shift", "setting": "RNA3WJ_2.0.0_5IB_3FAM", "value": 2.2, "unit": "°C"},
      {"measurement": "Melting temp + cmpd", "setting": "RNA3WJ_2.1.0_5IB_3FAM", "value": 42.0, "unit": "°C"},
      {"measurement": "Temp. Shift", "setting": "RNA3WJ_2.1.0_5IB_3FAM", "value": 0.1, "unit": "°C"},
      {"measurement": "Melting temp + cmpd", "setting": "RNA3WJ_1.1.0_5IB_3FAM", "value": 65.1, "unit": "°C"},
      {"measurement": "Temp. Shift", "setting": "RNA3WJ_1.1.0_5IB_3FAM", "value": 1.8, "unit": "°C"},
      {"measurement": "Melting temp + cmpd", "setting": "RNA3WJ_1.1.1_5IB_3FAM", "value": 64.3, "unit": "°C"},
      {"measurement": "Temp. Shift", "setting": "RNA3WJ_1.1.1_5IB_3FAM", "value": 2.1, "unit": "°C"},
      {"measurement": "Melting temp + cmpd", "setting": "[1]", "value": 44.7, "unit": "°C"},
      {"measurement": "Temp. Shift", "setting": "[1]", "value": "~1", "unit": "°C"},
      {"measurement": "Melting temp + cmpd", "setting": "[1]; listed as Ark0000014", "value": 44.0, "unit": "°C"},
      {"measurement": "Temp. Shift", "setting": "[1]; listed as Ark0000014", "value": "−0.3", "unit": "°C"},
      {"measurement": "Melting temp + cmpd", "setting": "[2]", "value": 68.4, "unit": "°C"},
      {"measurement": "Temp. Shift", "setting": "[2]", "value": "~3", "unit": "°C"},
      {"measurement": "Melting temp + cmpd", "setting": "[2]; listed as Ark0000014", "value": 68.1, "unit": "°C"},
      {"measurement": "Temp. Shift", "setting": "[2]; listed as Ark0000014", "value": 2.5, "unit": "°C"},
      {"measurement": "Melting temp + cmpd", "setting": "[3]", "value": 38.8, "unit": "°C"},
      {"measurement": "Temp. Shift", "setting": "[3]", "value": "~1", "unit": "°C"},
      {"measurement": "Melting temp + cmpd", "setting": "[3]; listed as Ark0000014", "value": 37.8, "unit": "°C"},
      {"measurement": "Temp. Shift", "setting": "[3]; listed as Ark0000014", "value": 0.3, "unit": "°C"},
      {"measurement": "fluorescence quenching effect (FAM fluorescence signal)", "setting": "[4]", "value": "smaller effect"},
      {"measurement": "fluorescence quenching effect (FAM fluorescence signal)", "setting": "[5]", "value": "Split3WJ_2 shows larger effect"},
      {"measurement": "fluorescence quenching effect (FAM fluorescence signal)", "setting": "[6]", "value": "smaller effect"},
      {"measurement": "Melting temp + cmpd", "setting": "RNA3WJ_3.0.0_5IB_3FAM", "value": 63.9, "unit": "°C"},
      {"measurement": "Temp. Shift", "setting": "RNA3WJ_3.0.0_5IB_3FAM", "value": 1.9, "unit": "°C"},
      {"measurement": "Melting temp + cmpd", "setting": "[7]; [8]", "value": 61.5, "unit": "°C"},
      {"measurement": "Temp. Shift", "setting": "[7]; [8]", "value": 1.6, "unit": "°C"},
      {"measurement": "Melt. Temp. with cmpd", "setting": "[7]; RNA sequence 3WJ_0.0.0_5IB_FAM, melting temperature in presence of compound", "value": 61.5, "unit": "°C"},
      {"measurement": "Shift melt. Temp.", "setting": "[7]; RNA sequence 3WJ_0.0.0_5IB_FAM, with cmpd minus without cmpd", "value": "+1.6 °C"}
    ]}
  ]
}
